This is an account of results in the supplement of paper PMC3974653.

Where a name gives a salt, the structure may show the parent alone.

In the assay the test system is MTT (mouse pheochromocytoma). The experiment in a line: IC50 of cell viability (ATP content). Particulars: (24 or 48 h). The procedure, abridged:
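MTT mouse pheochromocytoma cells (5 µl of 200,000 cells/ml per well, white 1536-well plates, DMEM with 5% FBS and 1% horse serum) were cultured overnight at 37°C, 5% CO2. They then received 23 nl library compound in DMSO by pintool at 8 concentrations (final 0.5 nM to 46 µM) for 24 or 48 hrs. CellTiter-Glo ATP luminescence was read after 15 minutes. Signals were normalised to positive-control (100% inhibition) and DMSO (0%) wells, and IC50 came from a four-parameter logistic fit.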

`CC(=O)N[C@@H]1C(O[C@H]2O[C@H](C(=O)O)C(O)[C@H](O)[C@H]2O)[C@H](O)[C@@H](CO)O[C@H]1O[C@@H]1C(C(=O)O)O[C@@H](O[C@H]2[C@H](O)[C@@H](CO)OC(O)[C@@H]2NC(C)=O)[C@H](O)[C@H]1O` (stereo not given in full) [HYALURONATE SODIUM]: the “IC50 of cell viability” value is more than 46 µM. Under `[Na+].[Na+].CC1CC2C3CCC/4=C/C(=O)/C=C\[C@@]4(C)[C@]3(F)C(O)C[C@]2(C)[C@]1(O)C(=O)CO[P]([O-])([O-])=O` (stereo not given in full) [DEXAMETHASONE SODIUM PHOSPHATE] stands more than 46 µM.

`O=c1[nH]c2cc(C(F)(F)F)c(N3CCOCC3)cc2n(CP(=O)(O)O)c1=O` [FANAPANELUM]: the “IC50 of cell viability” value was more than 46 µM. Under `C[C@@H](Cc1ccc(O)cc1)NC[C@@H](O)c1cc(O)cc(O)c1` [Fenoterol hydrobromide] stands more than 46 µM. Turning to `COc1c2c(cc3c1OCO3)CCN(C)C2` [Hydrocotarnine hydrobromide], the “IC50 of cell viability” value is more than 46 µM. Turning to `CCCC[N+]1(C)C2CC(OC(=O)C(CO)c3ccccc3)CC1C1OC12` (stereo not given) [BUTYLSCOPOLAMMONIUM], the “IC50 of cell viability” value was more than 46 µM. Under `c1ccc2c(c1)OCC(CN1CCCCC1)O2` (stereo not given) [PIPEROXANUM] stands more than 46 µM. For `CCN1\C=C(\C(O)=O)C(=O)C2=CC(=C(N3CCN[C@@H](C)C3)C(=C12)F)F` [Lomefloxacin hydrochloride], the “IC50 of cell viability” value was more than 46 µM. In the case of `CC(C)Oc1ccc2c(=O)c(-c3ccccc3)coc2c1` [Ipriflavone], the “IC50 of cell viability” value is more than 46 µM.

For the compound `C[N+](C)(C)CCCCCCCCCC[N+](C)(C)C` [DECAMETHONIUM], the “IC50 of cell viability” value is more than 46 µM. With `CCN(CC)CCNC(C(=O)OCCC(C)C)c1ccccc1` (stereo not given) [ACAMYLOPHENINE HYDROCHLORIDE], the “IC50 of cell viability” value was more than 46 µM. `O=C(CCCCCCCCC#CI)Oc1ccccc1` [Phenyl 11-iodo-10-undecynoate]: the “IC50 of cell viability” value was more than 46 µM.

In the case of `CN(C)CCN(Cc1ccccc1)c1ccccn1.O=C(O)CC(O)(CC(=O)O)C(=O)O` [TRIPELENNAMINE CITRATE], the “IC50 of cell viability” value was more than 46 µM.

As to `OC1(c2ccc(Cl)c(C(F)(F)F)c2)CCN(CCCC(c2ccc(F)cc2)c2ccc(F)cc2)CC1` [Penfluridol], the “IC50 of cell viability” value was more than 46 µM. For `COP(=S)(OC)SCN1C(=O)c2ccccc2C1=O` [Phosmet], the “IC50 of cell viability” value was more than 46 µM. As for `CCCCc1oc2ccccc2c1C(=O)c1cc(I)c(OCCN(CC)CC)c(I)c1` [Amiodarone hydrochloride], the figure is more than 46 µM; as for `CCN(CC)CCOC(=O)C1(C2CCCCC2)CCCCC1` [Dicyclomine], more than 46 µM.

`O=C([O-])Cc1ccccc1Nc1c(Cl)cccc1Cl.[Na+]` [DICLOFENAC SODIUM]: the “IC50 of cell viability” value was more than 46 µM. `CC1CCC(O)C/C1=C\C=C1/CCCC2(C)C1CCC2C(C)/C=C/C(C)C(C)C` (stereo not given) [DIHYDROTACHYSTEROL]: the “IC50 of cell viability” value was more than 46 µM.

For `CCN1\C=C(\C(O)=O)C(=O)C2=C1C=C(N3CCNCC3)C(=C2)F` [Norfloxacin], the “IC50 of cell viability” value was more than 46 µM. As for `O=C(NCCN1CCOCC1)c1ccc(Cl)cc1` [Moclobemide], the figure is more than 46 µM; as for `OCC1O[C@H](OC2C(CO)O[C@@](O)(CO)C2O)C(O)C(O)C1O` (stereo not given in full) [LACTULOSE], more than 46 µM; as for `C#Cc1cccc(Nc2ncnc3cc(OCCOC)c(OCCOC)cc23)c1` [Erlotinib], more than 46 µM. As for `C=CC(N)CCC(=O)O` (stereo not given) [VIGABATRIN], the figure is more than 46 µM; as for `CN[S+](=O)([O-])Cc1ccc2[nH]cc(CCN(C)C)c2c1` [SUMATRIPTAN], more than 46 µM; as for `N=C(N)NCCCCCCC(=O)NC(O)C(=O)NCCCCNCCCN` (stereo not given) [Gusperimus trihydrochloride], more than 46 µM. As for `CC(C)CC(NC(=O)C(COC(C)(C)C)NC(=O)C(Cc1ccc(O)cc1)NC(=O)C(CO)NC(=O)C(Cc1c[nH]c2ccccc12)NC(=O)C(Cc1cnc[nH]1)NC(=O)C1CCC(=O)N1)C(=O)NC(CCCN=C(N)N)C(=O)N1CCCC1C(=O)NNC(N)=O` (stereo not given) [GOSERELIN ACETATE], the figure is more than 46 µM.

Consider `COc1ccc([S+](=O)([O-])N2c3ccc(Cl)cc3[C@](O)(c3ccccc3Cl)[C@@H]2C(=O)N2CCC[C@H]2C(N)=O)cc1OC` [RELCOVAPTANUM], for which the “IC50 of cell viability” value was more than 46 µM. As for `O=C([O-])c1cc(O)c2c3nc4ccccc4oc-3cc(=O)c2n1` [PIRENOXINE], the figure is more than 46 µM.

With `C[Se]CC[C@H](N)C(=O)O` [SELENOMETHIONINE, L-], the “IC50 of cell viability” value was more than 46 µM. Take `CCOC(=O)O[C@]1(C(=O)OCCl)CC[C@H]2[C@@H]3CCC4=CC(=O)C=C[C@]4(C)[C@H]3[C@@H](O)C[C@@]21C` [Loteprednol etabonate]: the “IC50 of cell viability” value was more than 46 µM. Regarding `C[C@H]1C[S+](=O)([O-])CCN1/N=C\c1ccc([N+](=O)[O-])o1` [Nifurtimox], the “IC50 of cell viability” value is more than 46 µM. As for `CCCCOc1cc(C(=O)NCCN(CC)CC)c2ccccc2n1` [Dibucaine], the figure is more than 46 µM; as for `CO[C@@H]1[C@@H](OC2OC(C)C(OC3CC(C)(O)C(OC(=O)CC(C)C)C(C)O3)C(N(C)C)C2O)[C@@H](CC=O)C[C@@H](C)C(=O)C=CC2O[C@H]2C[C@@H](C)OC(=O)C[C@H]1OC(C)=O` (stereo not given in full) [CARBOMYCIN], more than 46 µM. On to `O=C(NOCC(O)CO)c1ccc(F)c(F)c1Nc1ccc(I)cc1F` (stereo not given), for which the “IC50 of cell viability” value is more than 46 µM. With `CCCCCCCCCCCCCC(=O)OCC(COP(=O)([O-])OCC[N+](C)(C)C)OC(=O)CCCCCCCCCCCCC` (stereo not given) [DIMYRISTOYL LECITHIN], the “IC50 of cell viability” value is more than 46 µM. Under `OCCN1CCN(CCCN2C3=C(C=CC=C3)\C=C/C4=C2C=CC=C4)CC1` [Opipramol HCl] stands more than 46 µM. `CN1CCN(c2c(F)cc3c(=O)c(C(=O)O)cn4c3c2OCN4C)CC1` [Marbofloxacin]: the “IC50 of cell viability” value is more than 46 µM. Under `CC[C@H](C)[C@H](N)\C1=N\[C@@H](CS1)C(=O)N[C@@H](CC(C)C)C(=O)N[C@@H](CCC(O)=O)C(=O)N[C@H]([C@@H](C)CC)C(=O)N[C@@H]2CCCCNC(=O)[C@@H](CC(N)=O)NC(=O)[C@@H](CC(O)=O)NC(=O)[C@@H](CC3=CN=C[NH]3)NC(=O)[C@@H](CC4=CC=CC=C4)NC(=O)[C@H](NC(=O)[C@@H](CCCN)NC2=O)[C@@H](C)CC` [Bacitracin] stands more than 46 µM; under `O=C1OC(OC(=O)c2cccnc2Nc2cccc(C(F)(F)F)c2)c2ccccc21` (stereo not given) [TALNIFLUMATUM], more than 46 µM; under `Nc1nc(O)c(-c2ccccc2)o1` [PEMOLINE], more than 46 µM. For `CO/N=C(/C(=O)N[C@@H]1C(=O)N2C(C(=O)O)=C(C[n+]3ccc(N)n3CCO)CS[C@H]12)c1csc(N)n1` [CEFOSELIS SULFATE], the “IC50 of cell viability” value is more than 46 µM.

On to `CC(C)c1nc(N(C)[S+](C)(=O)[O-])nc(-c2ccc(F)cc2)c1/C=C/C(O)CC(O)CC(=O)O` (stereo not given) [ROSUVASTATIN], for which the “IC50 of cell viability” value is more than 46 µM.

Consider `O=c1oc2cc(O)ccc2s1` [TIOXOLONE], for which the “IC50 of cell viability” value is more than 46 µM. For the compound `COc1cc(N[S+](=O)([O-])c2ccc(N)cc2)nc(C)n1` [SULFAMETOMIDINE], the “IC50 of cell viability” value is more than 46 µM. For the compound `O=C(O)COCCN1CCN([C@@H](c2ccccc2)c2ccc(Cl)cc2)CC1` [Cetirizine dihydrochloride], the “IC50 of cell viability” value was more than 46 µM.

Turning to `CC(C)Cc1ccc(CC(=O)O)cc1` [Ibufenac], the “IC50 of cell viability” value was more than 46 µM. As for `Cc1c(C)c2c(c(C)c1OC(=O)CCC(=O)OCCO)CC[C@](C)(CCC[C@H](C)CCC[C@H](C)CCCC(C)C)O2` [Tocofersolan], the figure is more than 46 µM; as for `CCNc1nc(Cl)nc(NCC)n1` [SIMAZINE], more than 46 µM. As to `CCCCNC(=O)N[S+](=O)([O-])c1ccc(C)cc1` [TOLBUTAMIDE], the “IC50 of cell viability” value is more than 46 µM. Under `Cn1sc(Cl)cc1=O` [METHYLCHLOROISOTHIAZOLINONE] stands more than 46 µM.

Regarding `CCCCOc1ccc(OCCCN2CCOCC2)cc1` [Pramoxine hydrochloride], the “IC50 of cell viability” value is more than 46 µM.

Take `OCC(O)COc1ccc(Cl)cc1` (stereo not given) [3-(4-CHLOROPHENOXY)-1,2-PROPANEDIOL]: the “IC50 of cell viability” value was more than 46 µM. Turning to `COc1ccc2[nH]cc(CCNC(C)=O)c2c1` [MELATONIN], the “IC50 of cell viability” value was more than 46 µM. As for `CC(C)NC(C)Cc1ccc(I)cc1.Cl` (stereo not given) [Iofetamine hydrochloride], the figure is more than 46 µM; as for `CC1(C)O[C@@H]2C[C@@H]3[C@@H]4C[C@@H](F)\C5=C\C(=O)\C=C/[C@]5(C)[C@H]4[C@H](O)C[C@@]3(C)[C@]2(O1)C(=O)CO` [Flunisolide], more than 46 µM; as for `C\C1=C(/C)C(=O)\C(=C(\C)C1=O)CCCCC#CCCCC#CCO` [AA-861], more than 46 µM. Take `O=C(Nc1ncc([N+](=O)[O-])s1)c1cccs1` [Tenonitrozol]: the “IC50 of cell viability” value is more than 46 µM. On to `CC(=O)Nc1ccc(CC(=O)O)cc1` [Actarit], for which the “IC50 of cell viability” value was more than 46 µM. On to `CC(=O)OC/C=C(C)/C=C/C=C(C)/C=C/C1=C(C)CCCC1(C)C` [Retinyl acetate], for which the “IC50 of cell viability” value was more than 46 µM.
